Here are results for three substances from patent US11007256B2, “Synthetic lipopeptide vaccines and immunotherapeutics” (The University of Toledo, priority 2016, dated 2021).

Where no end group is shown, it is not given here.

In test [1] the test system is Splenocytes. As to the kind of experiment: T stimulation assay with IFNγ secreting ELISPOT kit on splenocytes of treated NOD mice. The class given is cell-based, NOD female mice. On the procedure: (FIG. 30.) Further, this system was studied in non-diabetic non-obese diabetic model (NOD). […] These mice were sacrificed and their spleens were collected for performing T stimulation assay using IFNγ secreting ELISPOT kit. […] After 36 hours of incubation, IFNγ secreting cells were looked for.

In test [2] the test system is GAD 546-554 specific CD8 T cell clone. As to the kind of experiment: Cytokine release of GAD 546-554 specific CD8 T cell clone incubated with APLs and antigen presenting cells. The class given is cell-based, mouse. The conditions noted are these: CD8 T cell clone incubated with APL and antigen presenting cells. From the text:
Immune cells protect the human body from foreign antigens. However, in autoimmune diseases like type 1 diabetes (T1D), autoreactive T cells recognize pancreatic beta cell related proteins as antigens, leading to beta cell destruction. An altered peptide ligand (APL) strategy can be used to target autoreactive T cells in T1D. GAD 546-554 (SEQ ID NO: 7) is reported as a dominant epitope recognized by autoreactive T cells, in the non-obese diabetic mouse model, that can cause destruction of beta cells. Nine APLs which have single alanine substitution, at different positions of GAD 546-554 (SEQ ID NO: 7), were screened. When GAD 546-554 (SEQ ID NO: 7) specific CD8 T cell clone was incubated with different APLs and antigen presenting cells, APL9 (SEQ ID NO: 8) inhibited both IFN-γ and TNF-α release. In order to improve antigen presentation and endosomal escape of APL9 (SEQ ID NO: 8), a bioconjugate platform of a liposome containing a Formula I bioconjugate of APL9 (SEQ ID NO: 8) and the toll like receptor ligand, Pam3CysSK4 (“CysSK4” disclosed as SEQ ID NO: 16), as well as antibody against macrophage and dendritic cell protein, F4/80, was developed. This immunotherapy strategy is beneficial to prevent T1D by rendering autoreactive immune cells more tolerant of beta cells. […]

Test [3] concerns GAD 546-554 specific CD8 T cell clone (CTL.546L). Nature of the test: Interferon gamma release of CTL.546L co-cultured with bioconjugate-treated M12C3.B7 APCs. The following applies: compared with free peptide GAD 546-544; M12C3.B7 APCs treated 3 hours, co-culture 24 hours (FIG. 29). The class given is cell-based, mouse. Here is the method: M12C3B7, B cell line, was used as an APC. […] Later, these cells were co-cultured with CTL.546.L (2×10^5 cells/well) for 24 hours. After 24 hours of incubation, supernatants were collected for studying the interferon gamma release.
Co-culture was incubated for 24 hours at 37° C. Supernatants were used to study the IFNγ release.

Regarding “bioconjugate GAD 541-554: bioconjugate of GAD 541-554 (GTTMVSYQPLGDKV, SEQ ID NO: 6) (also: bioconjugate moiety, kind and site not given here)”, the “number of IFNγ secreting cells” value was “increase in number of IFNγ secreting cells” in test [1] (splenocytes from vehicle treated NOD mice, treated in vitro for 36 hours (FIG. 31)) and “increase in number of IFNγ secreting cells” in test [1] (splenocytes of NOD mice primed for three consecutive weeks, then treated with either bioconjugate or bioconjugate with F4/80 for 36 hours).
As for SYQPLGDAV [APL9], in test [2], the IFN-γ release entry is “inhibited” and the TNF-α release entry is recorded as “inhibited”.
With “bioconjugate 546-554: Formula I bioconjugate of GAD 546-554 (SYQPLGDKV, SEQ ID NO: 7) with Pam3CysSK4 (also: Formula I bioconjugate with Pam3CysSK4, attachment site not given here)”, in test [3], the IFNγ release entry is “significantly lower”.
